Reference: paper PMC5218480 (PLoS ONE, 2017)

Tested on: MV-4-11 cells
Experiment: Gene expression microarray analysis (Affymetrix PrimeView) and GSEA
Type: cell-based, human
Parameters: RFU PODN (11730768_x_at) / Fold change /veh PODN (11730768_x_at) / RFU LINC00158 (11744669_a_at) / Fold change /veh LINC00158 (11744669_a_at) / RFU DUSP10 (11751237_a_at) / Fold change /veh DUSP10 (11751237_a_at) / RFU ID3 (11757404_x_at) / Fold change /veh ID3 (11757404_x_at) / RFU PLEKHG5 (11737974_s_at) / Fold change /veh PLEKHG5 (11737974_s_at) / RFU LRRC4B (11730491_at) / Fold change /veh LRRC4B (11730491_at) / RFU GIMAP4 (11747438_a_at) / Fold change /veh GIMAP4 (11747438_a_at) / RFU KRT8 (11758183_x_at) / Fold change /veh KRT8 (11758183_x_at) / RFU CNN1 (11734310_a_at) / Fold change /veh CNN1 (11734310_a_at) / RFU VPS37D (11726825_at) / Fold change /veh VPS37D (11726825_at) / RFU C10orf10 (11716522_x_at) / Fold change /veh C10orf10 (11716522_x_at) / RFU KIR2DL2 /// KIR2DL4 /// KIR2DL5A /// KIR2DL5B /// KIR2DS1 /// KIR2DS2 /// KIR2DS3 /// KIR2DS4 /// KIR3DL3 /// KIR3DL3 /// KIR3DS1 (11738374_at) / Fold change /veh KIR2DL2 /// KIR2DL4 /// KIR2DL5A /// KIR2DL5B /// KIR2DS1 /// KIR2DS2 /// KIR2DS3 /// KIR2DS4 /// KIR3DL3 /// KIR3DL3 /// KIR3DS1 (11738374_at) / RFU C1QL1 (11718748_at) / Fold change /veh C1QL1 (11718748_at) / RFU TMPRSS4 (11747572_a_at) / Fold change /veh TMPRSS4 (11747572_a_at) / RFU HAMP (11756126_x_at) / Fold change /veh HAMP (11756126_x_at) / RFU RNFT2 (11725882_a_at) / Fold change /veh RNFT2 (11725882_a_at) / RFU NR4A2 (11747474_a_at) / Fold change /veh NR4A2 (11747474_a_at) / RFU ABCC12 (11746883_a_at) / Fold change /veh ABCC12 (11746883_a_at) / RFU TMEM136 (11760407_x_at) / Fold change /veh TMEM136 (11760407_x_at) / RFU CLDN22 /// WWC2 (11732394_at) / Fold change /veh CLDN22 /// WWC2 (11732394_at) / RFU HLA-DPB1 (11760878_x_at) / Fold change /veh HLA-DPB1 (11760878_x_at) / RFU SPINT1 (11716480_a_at) / Fold change /veh SPINT1 (11716480_a_at) / RFU GAP43 (11754022_s_at) / Fold change /veh GAP43 (11754022_s_at) / RFU A4GNT (11735810_at) / Fold change /veh A4GNT (11735810_at) / RFU PRB3 (11715151_x_at) / Fold change /veh PRB3 (11715151_x_at) / RFU TUBB4B (11761932_at) / Fold change /veh TUBB4B (11761932_at) / RFU CAPN14 (11732068_a_at) / Fold change /veh CAPN14 (11732068_a_at) / RFU TMCC2 (11721928_a_at) / Fold change /veh TMCC2 (11721928_a_at) / RFU IRGQ (11745062_a_at) / Fold change /veh IRGQ (11745062_a_at) / RFU FAM174B (11720279_a_at) / Fold change /veh FAM174B (11720279_a_at) / RFU TMPRSS4 (11748680_a_at) / Fold change /veh TMPRSS4 (11748680_a_at) / RFU FAM212B (11763350_a_at) / Fold change /veh FAM212B (11763350_a_at) / RFU PLEKHG5 (11743358_a_at) / Fold change /veh PLEKHG5 (11743358_a_at) / RFU ZSCAN30 (11745921_a_at) / Fold change /veh ZSCAN30 (11745921_a_at) / RFU CMKLR1 (11741424_a_at) / Fold change /veh CMKLR1 (11741424_a_at) / RFU LOC101060620 /// MAPK8IP1 (11723275_at) / Fold change /veh LOC101060620 /// MAPK8IP1 (11723275_at) / RFU SPTSSB (11747773_x_at) / Fold change /veh SPTSSB (11747773_x_at) / RFU PRSS12 (11739890_at) / Fold change /veh PRSS12 (11739890_at) / RFU BIN1 (11741810_x_at) / Fold change /veh BIN1 (11741810_x_at) / RFU WNT11 (11732464_a_at) / Fold change /veh WNT11 (11732464_a_at) / RFU C10orf10 (11716521_a_at) / Fold change /veh C10orf10 (11716521_a_at) / RFU C5orf56 (11738089_at) / Fold change /veh C5orf56 (11738089_at) / RFU CYB561 (11721691_x_at) / Fold change /veh CYB561 (11721691_x_at) / RFU ANKRD19P (11752326_a_at) / Fold change /veh ANKRD19P (11752326_a_at) / RFU OR2T12 /// OR2T33 /// OR2T8 (11738714_s_at) / Fold change /veh OR2T12 /// OR2T33 /// OR2T8 (11738714_s_at) / RFU VCAN (11748164_a_at) / Fold change /veh VCAN (11748164_a_at) / RFU JSRP1 (11732532_at) / Fold change /veh JSRP1 (11732532_at) / RFU KRTAP10-11 (11738290_x_at) / Fold change /veh KRTAP10-11 (11738290_x_at) / RFU MYO3A (11730013_a_at) / Fold change /veh MYO3A (11730013_a_at) / RFU EBF3 (11725865_a_at) / Fold change /veh EBF3 (11725865_a_at) / RFU CAMK2N1 (11719241_x_at) / Fold change /veh CAMK2N1 (11719241_x_at) / RFU C5orf56 (11738088_a_at) / Fold change /veh C5orf56 (11738088_a_at) / RFU OLFML3 (11715873_a_at) / Fold change /veh OLFML3 (11715873_a_at) / RFU LOC100653217 /// NTM (11731650_a_at) / Fold change /veh LOC100653217 /// NTM (11731650_a_at) / RFU MAPK11 (11762145_a_at) / Fold change /veh MAPK11 (11762145_a_at) / RFU FIZ1 (11724087_x_at) / Fold change /veh FIZ1 (11724087_x_at) / RFU OASL (11726364_x_at) / Fold change /veh OASL (11726364_x_at) / RFU SOX15 (11748057_x_at) / Fold change /veh SOX15 (11748057_x_at) / RFU CD79A (11719716_a_at) / Fold change /veh CD79A (11719716_a_at) / RFU HIST1H1D (11736915_at) / Fold change /veh HIST1H1D (11736915_at) / RFU CASKIN2 (11723855_a_at) / Fold change /veh CASKIN2 (11723855_a_at) / RFU LOC730098 (11760151_x_at) / Fold change /veh LOC730098 (11760151_x_at) / RFU OR4N2 (11742367_at) / Fold change /veh OR4N2 (11742367_at) / RFU PRRT2 (11749266_a_at) / Fold change /veh PRRT2 (11749266_a_at) / RFU SNX32 (11753110_a_at) / Fold change /veh SNX32 (11753110_a_at) / RFU CDHR5 (11726645_a_at) / Fold change /veh CDHR5 (11726645_a_at) / RFU RCAN1 (11760418_a_at) / Fold change /veh RCAN1 (11760418_a_at) / RFU FAM167A (11723789_a_at) / Fold change /veh FAM167A (11723789_a_at) / RFU FAM26E (11764081_at) / Fold change /veh FAM26E (11764081_at) / RFU ISYNA1 (11749810_s_at) / Fold change /veh ISYNA1 (11749810_s_at) / RFU ACY1 (11761880_at) / Fold change /veh ACY1 (11761880_at) / RFU 11764098_at / Fold change /veh 11764098_at / RFU SAMD14 (11745864_x_at) / Fold change /veh SAMD14 (11745864_x_at) / RFU NPB (11741838_a_at) / Fold change /veh NPB (11741838_a_at) / RFU TMPRSS6 (11731388_a_at) / Fold change /veh TMPRSS6 (11731388_a_at) / RFU KRTAP10-2 (11738614_at) / Fold change /veh KRTAP10-2 (11738614_at) / RFU ARHGAP8 /// PRR5-ARHGAP8 (11727945_x_at) / Fold change /veh ARHGAP8 /// PRR5-ARHGAP8 (11727945_x_at) / RFU KRTAP5-7 /// NADSYN1 (11734609_at) / Fold change /veh KRTAP5-7 /// NADSYN1 (11734609_at) / RFU RASL12 (11751679_a_at) / Fold change /veh RASL12 (11751679_a_at) / RFU CDKN2B (11736163_a_at) / Fold change /veh CDKN2B (11736163_a_at) / RFU PRF1 (11729649_at) / Fold change /veh PRF1 (11729649_at) / RFU, ZNF638 /// ZNF638-IT1 / Fold change vs veh, ZNF638 /// ZNF638-IT1 / RFU, PANK3 / Fold change vs veh, PANK3 / RFU, SH3YL1 / Fold change vs veh, SH3YL1 / RFU, ZEB2 / Fold change vs veh, ZEB2 / RFU, NRIP1 / Fold change vs veh, NRIP1 / RFU, PTTG1IP / Fold change vs veh, PTTG1IP / RFU, CAPN2 / Fold change vs veh, CAPN2 / RFU, MED14 / Fold change vs veh, MED14 / RFU, SNORA58 / Fold change vs veh, SNORA58 / RFU, C1orf63 / Fold change vs veh, C1orf63 / RFU, LRRFIP1 / Fold change vs veh, LRRFIP1 / RFU, NDUFAF7 / Fold change vs veh, NDUFAF7 / RFU, SLC12A2 / Fold change vs veh, SLC12A2 / RFU, IBTK / Fold change vs veh, IBTK / RFU, ESF1 / Fold change vs veh, ESF1 / Fold change vs veh, TMEM50B / RFU, TAOK1 / Fold change vs veh, TAOK1 / RFU, ACBD3 / Fold change vs veh, ACBD3 / RFU, TMA16 / Fold change vs veh, TMA16 / RFU, RWDD3 / Fold change vs veh, RWDD3 / RFU, BCAT1 / Fold change vs veh, BCAT1 / RFU, EDEM3 / Fold change vs veh, EDEM3 / RFU, TMEM33 / Fold change vs veh, TMEM33 / RFU, WDR75 / Fold change vs veh, WDR75 / RFU, AHCTF1 / Fold change vs veh, AHCTF1 / RFU, TFRC / Fold change vs veh, TFRC / RFU, ZDHHC17 / Fold change vs veh, ZDHHC17 / RFU, NOM1 / Fold change vs veh, NOM1 / RFU, ARL8B / Fold change vs veh, ARL8B / RFU, ZBTB11 / Fold change vs veh, ZBTB11 / RFU, TAMM41 / Fold change vs veh, TAMM41 / RFU, KIAA1704 /// LOC100996395 / Fold change vs veh, KIAA1704 /// LOC100996395 / RFU, ING1 / Fold change vs veh, ING1 / RFU, TRMT61B / Fold change vs veh, TRMT61B / RFU, FUBP3 / Fold change vs veh, FUBP3 / RFU, TP53 / Fold change vs veh, TP53 / RFU, TNKS2 / Fold change vs veh, TNKS2 / RFU, ZFP14 / Fold change vs veh, ZFP14 / RFU, ACTR2 / Fold change vs veh, ACTR2 / RFU, PPP3R1 / Fold change vs veh, PPP3R1 / RFU, PIK3R1 / Fold change vs veh, PIK3R1 / RFU, HNRNPA1 / Fold change vs veh, HNRNPA1 / RFU, RNF170 / Fold change vs veh, RNF170 / RFU, ZNF28 / Fold change vs veh, ZNF28 / RFU, RNGTT / Fold change vs veh, RNGTT / RFU, OGT / Fold change vs veh, OGT / RFU, BRD1 / Fold change vs veh, BRD1 / RFU, MARS / Fold change vs veh, MARS / RFU, ZNF655 / Fold change vs veh, ZNF655 / RFU, FAHD1 / Fold change vs veh, FAHD1 / RFU, BDP1 / Fold change vs veh, BDP1 / RFU, LRRCC1 / Fold change vs veh, LRRCC1 / RFU, ARID1A / Fold change vs veh, ARID1A / RFU, ZNF146 / Fold change vs veh, ZNF146 / RFU, ZNF330 / Fold change vs veh, ZNF330 / RFU, GPN3 / Fold change vs veh, GPN3 / RFU, C9orf123 / Fold change vs veh, C9orf123 / RFU, N4BP2L2 / Fold change vs veh, N4BP2L2 / RFU, ARFIP1 / Fold change vs veh, ARFIP1 / RFU, FAM179B / Fold change vs veh, FAM179B / RFU, BCL10 / Fold change vs veh, BCL10 / RFU, UHRF1BP1L / Fold change vs veh, UHRF1BP1L / RFU, BET1 / Fold change vs veh, BET1 / RFU, CNOT2 / Fold change vs veh, CNOT2 / RFU, ZNF268 / Fold change vs veh, ZNF268 / Fold change vs veh, ZNF507 / RFU, DGCR2 / Fold change vs veh, DGCR2 / RFU, WDSUB1 / Fold change vs veh, WDSUB1 / Fold change vs veh, HSP90B1 /// MIR3652 / RFU, ADSS / Fold change vs veh, ADSS / RFU, GK / Fold change vs veh, GK / RFU, ZNF148 / Fold change vs veh, ZNF148 / RFU, TAF9 / Fold change vs veh, TAF9 / RFU, SLC1A5 / Fold change vs veh, SLC1A5 / RFU, SLMO2 / Fold change vs veh, SLMO2 / RFU, ABCC4 / Fold change vs veh, ABCC4 / RFU, LOC101060439 /// RAP1B / Fold change vs veh, LOC101060439 /// RAP1B / RFU, RFX7 / Fold change vs veh, RFX7 / RFU, GTPBP10 / Fold change vs veh, GTPBP10 / RFU, CNEP1R1 / Fold change vs veh, CNEP1R1 / RFU, BIVM-ERCC5 /// ERCC5 / Fold change vs veh, BIVM-ERCC5 /// ERCC5 / RFU, ILF3 / Fold change vs veh, ILF3 / RFU 11762660_at / Fold change /veh 11762660_at / RFU VCAN (11757783_s_at) / Fold change /veh VCAN (11757783_s_at) / RFU DDX43 (11728927_at) / Fold change /veh DDX43 (11728927_at) / RFU KRT8 (11758188_x_at) / Fold change /veh KRT8 (11758188_x_at) / RFU NKD1 (11759106_at) / Fold change /veh NKD1 (11759106_at) / RFU SRD5A1 (11742802_a_at) / Fold change /veh SRD5A1 (11742802_a_at) / RFU TPSAB1 /// TPSB2 (11721975_s_at) / Fold change /veh TPSAB1 /// TPSB2 (11721975_s_at) / RFU GSTM3 (11746129_a_at) / Fold change /veh GSTM3 (11746129_a_at) / RFU IL23R (11737362_x_at) / Fold change /veh IL23R (11737362_x_at) / RFU TMEM51 (11727254_a_at) / Fold change /veh TMEM51 (11727254_a_at) / RFU PIWIL2 (11732686_x_at) / Fold change /veh PIWIL2 (11732686_x_at) / RFU ORM1 (11744905_x_at) / Fold change /veh ORM1 (11744905_x_at) / RFU CCDC152 (11743942_at) / Fold change /veh CCDC152 (11743942_at) / RFU ECM1 (11717891_a_at) / Fold change /veh ECM1 (11717891_a_at) / RFU IL23R (11748794_a_at) / Fold change /veh IL23R (11748794_a_at) / RFU TNFAIP8L3 (11732012_x_at) / Fold change /veh TNFAIP8L3 (11732012_x_at) / RFU MBOAT4 (11741988_at) / Fold change /veh MBOAT4 (11741988_at) / RFU 11764193_at / Fold change /veh 11764193_at / RFU TMEM53 (11763286_at) / Fold change /veh TMEM53 (11763286_at) / RFU MAGEB2 (11727129_at) / Fold change /veh MAGEB2 (11727129_at) / RFU TMEM200A (11744735_a_at) / Fold change /veh TMEM200A (11744735_a_at) / RFU CCDC152 (11751479_a_at) / Fold change /veh CCDC152 (11751479_a_at) / RFU FAM211A (11726209_a_at) / Fold change /veh FAM211A (11726209_a_at) / RFU RGS16 (11746705_a_at) / Fold change /veh RGS16 (11746705_a_at) / RFU VCAN (11755009_s_at) / Fold change /veh VCAN (11755009_s_at) / RFU RHOB (11743442_s_at) / Fold change /veh RHOB (11743442_s_at) / RFU RGS16 (11720943_a_at) / Fold change /veh RGS16 (11720943_a_at) / RFU RGS16 (11720944_at) / Fold change /veh RGS16 (11720944_at) / RFU, VPS4B / Fold change vs veh, VPS4B / RFU, CREB1 / Fold change vs veh, CREB1 / RFU, DNAJC13 / Fold change vs veh, DNAJC13 / RFU, GNAQ / Fold change vs veh, GNAQ / RFU, CDK5R1 / Fold change vs veh, CDK5R1 / RFU, ZRANB3 / Fold change vs veh, ZRANB3 / RFU, CUL4A / Fold change vs veh, CUL4A / RFU, CCNY / Fold change vs veh, CCNY / RFU, UFL1 / Fold change vs veh, UFL1 / RFU, COG3 / Fold change vs veh, COG3 / RFU, DIAPH2 / Fold change vs veh, DIAPH2 / RFU, SKA2 / Fold change vs veh, SKA2 / RFU, AFF3 / Fold change vs veh, AFF3 / RFU, LMF1 / Fold change vs veh, LMF1 / RFU, IPO11 / Fold change vs veh, IPO11 / RFU, DFFB / Fold change vs veh, DFFB / RFU, FOXP1 / Fold change vs veh, FOXP1 / RFU, CARD8 / Fold change vs veh, CARD8 / RFU, STRN3 / Fold change vs veh, STRN3 / RFU, ADK / Fold change vs veh, ADK / RFU, RASSF2 / Fold change vs veh, RASSF2 / RFU, WIPF1 / Fold change vs veh, WIPF1 / RFU, LARP1B / Fold change vs veh, LARP1B / RFU, RASA1 / Fold change vs veh, RASA1 / RFU, RB1 / Fold change vs veh, RB1 / RFU, PPFIA1 / Fold change vs veh, PPFIA1 / RFU, MAT2A / Fold change vs veh, MAT2A / RFU, CCT5 / Fold change vs veh, CCT5 / RFU, WDR92 / Fold change vs veh, WDR92 / RFU, CUX1 / Fold change vs veh, CUX1 / RFU, TTC7A / Fold change vs veh, TTC7A / RFU, TMEM135 / Fold change vs veh, TMEM135 / RFU, DEPTOR / Fold change vs veh, DEPTOR / RFU, CPM / Fold change vs veh, CPM / RFU, DNAJB6 / Fold change vs veh, DNAJB6 / RFU, CACNA2D3 / Fold change vs veh, CACNA2D3 / RFU, DTX4 / Fold change vs veh, DTX4 / RFU, TFCP2 / Fold change vs veh, TFCP2 / RFU, GMCL1 /// GMCL1P1 / Fold change vs veh, GMCL1 /// GMCL1P1 / RFU, AEBP2 / Fold change vs veh, AEBP2 / RFU, SNHG1 /// SNORD22 /// SNORD25 /// SNORD26 /// SNORD27 /// SNORD28 /// SNORD29 /// SNORD31 / Fold change vs veh, SNHG1 /// SNORD22 /// SNORD25 /// SNORD26 /// SNORD27 /// SNORD28 /// SNORD29 /// SNORD31 / Fold change (Aza/veh), C12orf56 (ProbeSet 11735607_a_at) / Fold change (ACY-1035/veh), C12orf56 (ProbeSet 11735607_a_at) / Fold change (Aza/veh), FGFR1OP (ProbeSet 11751329_s_at) / Fold change (ACY-1035/veh), FGFR1OP (ProbeSet 11751329_s_at) / Fold change (Aza/veh), VPS36 (ProbeSet 11739960_a_at) / Fold change (ACY-1035/veh), VPS36 (ProbeSet 11739960_a_at) / RFU SYPL1 (11715823_x_at) / Fold change /veh SYPL1 (11715823_x_at) / RFU IGFBP7 (11715501_s_at) / Fold change /veh IGFBP7 (11715501_s_at) / RFU REEP3 (11722064_at) / Fold change /veh REEP3 (11722064_at) / RFU IGLL1 (11728026_x_at) / Fold change /veh IGLL1 (11728026_x_at): dose or concentration left out as unconfirmed
Details: MV-4-11 cells, 48 hours

Nc1ccc(-c2cccs2)cc1NC(=O)c1ccc2c(c1)cc(C1CC1)n2CCN1CCOCC1 [ACY-1035]
RFU TMPRSS4 (11747572_a_at): 57.40 RFU
